# Data reported in US20030008857A1, “Photodynamic therapy (PDT) in combination with factors that bind cell surface apoptosis-inducing receptors” (priority 1999, published 2003).
# Entries after “also recorded” stand apart in the source; their conditions may differ.
# What was measured:
# [1] = tested on: caspase-3, -6, -8 and -9 and PARP; test: Western immunoblot of caspase processing and PARP cleavage in Jurkat cells; format: cell-based, human
# Experimental: (§1) The human Jurkat T cell line containing a neomycin resistance gene was obtained from Dr. Charles Rudin (University of Chicago). Cells were maintained in RPMI 1640 medium containing 10% heat-inactivated fetal calf serum (FCS) with penicillin (100 U/mL), streptomycin (100 μg/mL), 20 mM HEPES, 2 mM L-glutamine and G418 (1 μg/ml) purchased from Gibco BRL (Burlington, Ontario) in a CO2 incubator at 37° C. To elicit apoptosis with PDT, Jurkat cells were incubated with different amounts of liposomally formulated benzoporphyrin derivative monoacid ring A (BPD-MA, verteporfin, QLT PhotoTherapeutics, Inc., Vancouver, Canada) for one hour at 37° C. under light-protected conditions. The culture medium used for experiments was identical to that used for the passage of the cells except that FCS was used at a concentration of 5%. Experiments were conducted either in 6-well culture plates at 5×10^6 cells in a volume of 4 ml per well or in 96-well microtiter plates at 1×10^5 cells per well at 0.2 ml per well. Cells were irradiated with light of a wavelength of 690 nm delivered at 65-73 mW/sec from light emitting diodes (LED) to achieve a total light dose of 5 J/cm^2. Cells were returned to the incubator until required for analysis.
# (§2) FasL and TRAIL as used were recombinant preparations. FasL was obtained from Upstate Biotechnology (Lake Placid NY) and corresponded to amino acids 103-281 of the soluble domain of human FasL. TRAIL was obtained from BIOMOL Research Laboratories (Plymouth Meeting, Pa.) and corresponded to residues 114-281 of the soluble domain of human TRAIL. FasL and TRAIL were usually added immediately following the treatment of cells with PDT, although in one series of experiments these factors were added at 1, 2 or 3 hours post-irradiation.
# Whole cell lysates were prepared by washing 1×10^7 cells per sample twice with ice-cold PBS. Cells were disrupted with 1 mL of lysis buffer [1% Nonidet P-40 detergent (NP-40), 20 mM Tris-HCl, pH 8.0, 137 mM NaCl, 10% glycerol, 1 mM phenylmethylsulfonyl fluoride (PMSF) aprotinln (0.15 U/mL) and 1 mM sodium orthovanadate] for 20 minutes on ice. Lysates were centrifuged for 10 minutes at 15,800×g at 4° C.
# To evaluate the activation state of different caspases and the status of other cellular proteins, whole cell lysates were separated by sodium dodecyl sulphate polyacrylamide gel electrophoresis (SDS-PAGE). Specifically, detergent-soluble proteins were separated by SDS-PAGE within 10% gels under reducing conditions as described by Laemmli et al. (“Cleavage of Structural Proteins During the Assembly of the Head of Bacteriophage T4”, Nature, 227, 680-685 (1970)). The proteins were transferred to nitrocellulose membranes at 100 volts for one hour. […]
# cytochrome c = test: Cytochrome c in cytosolic extracts of Jurkat cells (immunoblot); format: cell-based, human
# Experimental: as §1, §2
# To obtain cytosolic extracts, cells were treated with 0.6 ml of ice-cold buffer [250 mM sucrose, 20 mM Hepes pH 7.4, 10 mM KCl, 1.5 mM MgCl2, 1 mM EGTA, 1 mM EDTA, 1 mM dithiothreitol, 1 mM PMSF and aprotinin (10 μg/ml)]. Cells were disrupted by 20 strokes with the B pestle of a Kontes™ dounce homogenizer. Supernatant collected following centrifugation at 10000×g was further centrifuged at 100000×g for 1 h at 4° C. in a Beckman Optima™ ultracentrifuge using a TL-100 rotor. (Granville et al., “Rapid cytochrome c release, activation of caspases 3, 6, 7 and 8 followed by Bap31 cleavage in HeLa cells treated with photodynamic therapy”, FEBS Lett. 437, 5-10 (1998)).
# To evaluate the activation state of different caspases and the status of other cellular proteins, whole cell lysates were separated by sodium dodecyl sulphate polyacrylamide gel electrophoresis (SDS-PAGE). […]
# [2] = FasL 7.5 ng/ml or TRAIL 20 ng/ml, 3 hours
Substance,"caspase processing and PARP degradation compared with PDT or the factor alone ([1]; FasL 7.5 ng/ml or TRAIL 20 ng/ml combined with verteporfin PDT, 3 hours)","processing of caspases and PARP by the factor alone [1, 2]","cytochrome c in cytosolic extracts, factor alone (cytochrome c; [2])","cytochrome c in cytosolic extracts, factor with PDT (cytochrome c; PDT in combination with TRAIL 20 ng/ml or FasL 7.5 ng/ml, 3 hours)","caspase processing after PDT alone ([1]; increasing verteporfin concentrations, 5 J/cm^2, 3 hours after irradiation)","caspase-3, -8, -9 and PARP processing after PDT alone ([1]; verteporfin 5 ng/ml, 5 J/cm^2, 3 hours (FIG. 8))","cytochrome c in cytosolic fractions, immediately versus three hours after photoirradiation (cytochrome c; verteporfin and light 5 J/cm^2)","cytochrome c within the cytosolic fraction (cytochrome c; verteporfin and light 5 J/cm^2, extracts prepared immediately afterward)"
"TRAIL: recombinant, residues 114-281 of the soluble domain of human TRAIL (BIOMOL)",more extensive caspase processing and PARP degradation; also recorded: a higher degree of processing,minor processing; also recorded: little detectable processing,background levels of cytochrome c,readily detectable amounts of cytochrome c,–,–,–,–
"benzoporphyrin derivative monoacid ring A [verteporfin, reference compound]",–,–,–,–,"evidence of caspase-3, -6, -8 and -9 processing; also recorded: processing of caspases-3, -6, -8 and -9",a moderate degree,comparable levels of cytochrome c,immediate appearance of cytochrome c
